The values that follow come from patent publication US20020076452A1, “Combinations of sesquiterpene lactones and ditepene lactones or triterpenes for synergistic inhibition of cyclooxygenase-2” (Ashni Naturaceuticals, Inc., priority 2000, published 2002).

Assay [1] concerns COX-2. The assay is described as follows: Inhibition of COX-2 enzyme protein expression in stimulated Jurkat cells (western blot). Format: cell-based, Human. The note with it: in the absence and presence of arachidonic acid, dose-range tested.
Text: Chemicals: Anti-COX-2 antibodies may be purchased from Upstate Biotechnology (Lake Placid, N.Y.). Parthenolide and andrographolide may be obtained from Sigma (St. Louis, Mo.). Arachidonic acid (AA), PMA and all other chemical may also be purchased from Sigma and are of the highest purity commercially available.
Human T cell lines: The Jurkat cell line is useful as a model for human T cells and may be obtained from the American Type Culture Collection (Bethesda, Md.). COX-2 is inducible in the Jurkat cell by PMA.
Cell plating: The Jurkat cells are propagated in suspension according to the instructions of the supplier. For experimentation, cells are seeded from a log-phase culture at a density of 1×10^5 cells per mL in 100 mm plates, 20 mL per plate, 3 plates per treatment. Serum concentration in the test medium is maintained at 0.5%.
Complete transfers are accomplished in 25-30 minutes at 500 mA. Membranes used for blotting are blocked by incubating in TBS (Tris buffered saline, 50 mM Tris, 150 mM NaCl, pH 7.5) containing 5% nonfat dry milk for 30 minutes at room temperature. COX-2 protein is visualized by incubation of the blots with the anti-COX-2 antibody in TBST (0.5% Tween 20 in TBS) for two hours and then a second incubation at room temperature with alkaline phosphatase-conjugated secondary antibody diluted 1:1000 in TBST for two hours. The enzymatic reaction is developed for 15 minutes. The molecular weight of COX-2 is estimated by adding a molecular weight standard to reference lanes and staining the membrane filters with amido black 10B.
Blots are translated into TIFF-formatted files with a Microtech 600GS scanner and quantified using Scan Analysis (BIOSOFT, Cambridge, UK). Summary scans are then printed and peak heights are measured directly from the figure. One density unit (Du) is defined as one mm of the resulting peak height.
Appropriate controls receive solvent only. […] Twenty-four hours after treatment, the cells are harvested, lysed and western blotting is done for the determination of COX-2 protein expression.
Assay [2] addresses T1, COX-2 (Mus musculus, UniProt Q05769).
T1 sequence (Q05769 18-604): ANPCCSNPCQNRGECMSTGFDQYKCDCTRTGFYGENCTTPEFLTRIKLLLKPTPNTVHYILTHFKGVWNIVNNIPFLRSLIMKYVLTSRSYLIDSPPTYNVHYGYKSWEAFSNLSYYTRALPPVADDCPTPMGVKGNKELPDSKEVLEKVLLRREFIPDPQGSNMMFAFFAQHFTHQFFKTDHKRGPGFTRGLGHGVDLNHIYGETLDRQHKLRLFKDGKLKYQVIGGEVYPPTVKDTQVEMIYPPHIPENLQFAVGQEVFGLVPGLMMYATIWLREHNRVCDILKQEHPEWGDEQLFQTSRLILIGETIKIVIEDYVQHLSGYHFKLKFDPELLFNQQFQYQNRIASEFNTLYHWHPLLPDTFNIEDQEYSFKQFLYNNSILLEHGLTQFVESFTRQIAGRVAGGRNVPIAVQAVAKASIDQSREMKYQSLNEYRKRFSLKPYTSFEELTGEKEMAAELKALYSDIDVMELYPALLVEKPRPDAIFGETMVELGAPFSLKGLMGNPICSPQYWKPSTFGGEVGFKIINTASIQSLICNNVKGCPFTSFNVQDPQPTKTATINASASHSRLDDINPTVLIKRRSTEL
The assay is described as follows: cell-based.
Experimental: Inhibition of COX-2 Mediated Production of PGE2 in RAW 264.7 Cells
General Procedure—RAW 264.7 cells, obtained from ATCC, were grown in DMEM medium and maintained in log phase growth.
On day one of the experiment, the log phase 264.7 cells were plated at 8×10^4 cells per well in 0.2 mL growth medium per well in a 96-well tissue culture plate. After 6 to 8 hours post plating, 100 μL of growth medium from each well was removed and replaced with 100 μL fresh medium. A 1.0 mg/mL solution of LPS, which was used to induce the expression of COX-2 in the RAW 264.7 cells, was prepared by dissolving 1.0 mg of LPS in 1 mL DMSO.
On day two of the experiment, the test materials were prepared as 1000×stock in DMSO. For example, if the final concentration of the test material was to be 10 μg/mL, a 10 mg/mL stock was prepared by dissolving 10 mg of the test material in 1 mL of DMSO. Fresh test materials were prepared on day 2 of the experiment. In 1.7 mL microfuge tubes, 1 mL DMEM without FBS was added to obtain test concentrations of 0.05, 0.10,0.5, and 1.0 μg/mL. 2 μL of the 1000×DMSO stock of the test material was added to the 1 mL of medium without FBS. The tube contained the final concentration of the test material was concentrated 2-fold. The tube was placed in incubator for 10 minutes to equilibrate.
One-hundred mL of medium was removed from each well of the cell plates prepared on day one. […]

In the case of `C[C@H]1[C@H](C)CC[C@]2(C(=O)O)CC[C@]3(C)C(=CC[C@@H]4[C@@]5(C)CC[C@H](O)C(C)(C)[C@@H]5CC[C@]43C)[C@H]12` [Ursolic acid, ursolic acid], the “Inhibition of COX-2 protein expression” value in the assay on COX-2 [1] is given as “does not inhibit”. Moreover, the IC50 (commonly the concentration needed to halve the response being measured) on COX-2 [2] was 35.3 µM.

As for `CC1(C)CC[C@]2(C(=O)O)CC[C@]3(C)C(=CC[C@@H]4[C@@]5(C)CC[C@H](O)C(C)(C)[C@@H]5CC[C@]43C)[C@@H]2C1` [Oleanolic acid, oleanolic acid], the “Inhibition of COX-2 protein expression” value with COX-2 [1] is “does not inhibit”.

Take `C=C1CC[C@@H]2[C@](C)(CO)[C@H](O)CC[C@@]2(C)[C@@H]1C/C=C1/C(=O)OC[C@H]1O` [Andrographolide, andrographolide]: the “Inhibition of COX-2 protein expression” value in the assay with COX-2 [1] is “little effect”. Besides, the concentration for half-maximal inhibition (IC50) at COX-2 [2] was 34.8 µM.
